Patent US9573966B2, “Anti-cancer activity of novel bicyclic heterocycles” (Katholieke Universiteit Leuven, K.U.Leuven R&D, priority 2010, dated 2017)

Tests used:
HSB-2 cells = assay: Inhibition of HSB-2 leukemic cell line proliferation (WST-1); format: cell-based, human; details: cytotoxicity on HSB-2 cells, two days incubation, WST-1 read-out
Description: (§1) HSB2 cell line, a human acute lymphoblastic leukemia (ATCC; CCL-120.1) cell line, was grown in RPMI-1640 medium (Lonza, Belgium) supplemented with 10% fetal calf serum (Hyclone, US) and antibiotics. Exponential growing phase cells were seed in flat bottom 96-well microplates (TTP, Switzerland) at 50000 cells per well in 220 μl of medium with compounds (in different concentrations) and incubated for two days at 37° C., 5% CO2. After incubation, 100 μl of supernatant were removed and 10 μl of WST-1 (Roche, Switzerland) were added. After 2 hour incubation at 37° C., 5% CO2, optical densities were measured at 450 nm. Proliferation is calculated with respect of control points (no compound and treatment with Triton X100 to have maximum and minimum proliferation data). The IC50 was determined from a graph with at least four points, each derived from the mean of at least 2 experiments. […] The results are shown in Table 1 for a number of compounds.

HL-60 cells = assay: Inhibition of HL-60 leukemic cell line proliferation (WST-1); format: cell-based, human; details: Homo sapiens, 48 h; cytotoxicity on HL-60 cells, two days incubation, WST-1 read-out
Description: as §1, with “HL-60 cell” for “HSB2 cell”, “human promyelocytic” for “human acute lymphoblastic”, “(ATCC; CCL-240)” for “(ATCC; CCL-120.1)”, “Table 2” for “Table 1”

Compound | IC50 (HSB-2 cells; Homo sapiens, HSB2, 48 h) | IC50 (HL-60 cells) | IC50 (HSB-2 cells)
Nc1nc(N2CCN(C(=O)COc3ccc(Cl)cc3)CC2)c2nc(C3CCCCC3)sc2n1 [Example 120, 5-amino-7-[4-(4-chlorophenoxyacetyl)piperazin-1-yl]-2-cyclohexylthiazolo[5,4-d]pyrimidine] | 4.87 µM | > 10 µM | –
Nc1nc(N2CCN(C(=O)COc3ccc(Cl)cc3)CC2)c2cc(-c3ccc(F)cc3)sc2n1 [Example 326, 1-(4-(2-amino-6-(4-fluorophenyl)thieno[2,3-d]pyrimidin-4-yl)piperazin-1-yl)-2-(4-chlorophenoxy)ethanone] | 8.97 µM | > 10 µM | –
Nc1nc(N2CCN(C(=O)COc3ccc(Cl)cc3)CC2)c2nc(SCc3ccccc3)[nH]c2n1 [Example 426, 1-(4-(2-amino-8-(benzylthio)-9H-purin-6-yl)piperazin-1-yl)-2-(4-chlorophenoxy)ethanone] | > 10 µM | > 10 µM | –
Nc1nc(N2CCN(C(=O)COc3ccc(Cl)cc3)CC2)c2nc(SC3CCCC3)[nH]c2n1 [Example 429, 1-(4-(2-amino-8-(cyclopentylthio)-9H-purin-6-yl)piperazin-1-yl)-2-(4-chlorophenoxy)ethanone] | 7.87 µM | > 10 µM | –
Nc1nc(N2CCN(C(=O)COc3ccc(Cl)cc3)CC2)c2nc(-c3ccc(Cl)cc3)sc2n1 [Example 123, 5-amino-7-[4-(4-chlorophenoxyacetyl)piperazin-1-yl]-2-(4-chlorophenyl)thiazolo[5,4-d]pyrimidine] | 3.73 µM | 1.2 µM | –
CN(C(=O)CN1CCN(c2nc(N)nc3oc(CCc4ccc(F)cc4)nc23)CC1)c1ccccc1 [Example 198, 5-amino-2-[2-(4-fluorophenyl)ethyl]-7-(4-[(methylphenyl-carbamoyl)methyl]piperazin-1-yl)-oxazolo[5,4-d]pyrimidine] | > 10 µM | > 10 µM | –
Nc1nc(N2CCN(C(=O)COc3ccc(Br)cc3)CC2)c2nc(-c3ccc(F)cc3)sc2n1 [Example 128, 5-amino-2-(4-fluorophenyl)-7-(4-[2-(4-bromophenoxy)acetyl]-piperazin-1-yl)-thiazolo[5,4-d]pyrimidine] | – | 6.47 µM | 5.62 µM
Nc1nc(N2CCN(C(=O)COc3cccc(Cl)c3)CC2)c2nc(-c3ccc(F)cc3)sc2n1 [Example 214, 1-(4-(5-amino-2-(4-fluorophenyl)thiazolo[5,4-d]pyrimidin-7-yl)piperazin-1-yl)-2-(3-chlorophenoxy)ethanone] | 0.73 µM | 6.02 µM | –
Cc1cccc(OCC(=O)N2CCN(c3nc(N)nc4sc(-c5ccco5)nc34)CC2)c1 [Example 210, 1-(4-(5-amino-2-(furan-2-yl)thiazolo[5,4-d]pyrimidin-7-yl)piperazin-1-yl)-2-(m-tolyloxy)ethanone] | 0.48 µM | 0.39 µM | –
Nc1nc(N2CCN(C(=O)COc3ccc(Cl)cc3)CC2)c2nc(-c3ccc(Cl)cc3)[nH]c2n1 [Example 392, 1-(4-(2-amino-8-(4-chlorophenyl)-9H-purin-6-yl)piperazin-1-yl)-2-(4-chlorophenoxy)ethanone] | 2.23 µM | 3.14 µM | –
N#Cc1ccc(NC(=O)N2CCN(c3nc(N)nc4sc(-c5cccnc5)nc34)CC2)cc1 [Example 279, 4-(5-amino-2-(pyridin-3-yl)thiazolo[5,4-d]pyrimidin-7-yl)-N-(4-cyanophenyl)piperazine-1-carboxamide] | 0.68 µM | 0.88 µM | –
Nc1nc(N2CCN(C(=O)Nc3ccc(Cl)cc3)CC2)c2nc(-c3cccnc3)sc2n1 [Example 277, 4-(5-amino-2-(pyridin-3-yl)thiazolo[5,4-d]pyrimidin-7-yl)-N-(4-chlorophenyl)piperazine-1-carboxamide] | 0.74 µM | 0.83 µM | –
Cc1cc(Cl)ccc1OCC(=O)N1CCN(c2nc(N)nc3sc(-c4ccc(F)cc4)nc23)CC1 [Example 213, 1-(4-(5-amino-2-(4-fluorophenyl)thiazolo[5,4-d]pyrimidin-7-yl)piperazin-1-yl)-2-(4-chloro-2-methylphenoxy)ethanone] | 5.25 µM | 6.72 µM | –
Cc1cccc(NC(=O)N2CCN(c3nc(N)nc4oc(CCc5ccc(F)cc5)nc34)CC2)c1 [Example 196, 5-amino-2-[2-(4-fluorophenyl)ethyl]-7-(4-m-tolylcarbamoylpiperazin-1-yl)-oxazolo[5,4-d]pyrimidine] | > 10 µM | > 10 µM | –
Cn1c(-c2ccc(F)cc2)nc2c(N3CCN(C(=O)COc4ccc(Cl)cc4)CC3)nc(N)nc21 [Example 430, 1-(4-(2-amino-8-(4-fluorophenyl)-9-methyl-9H-purin-6-yl)piperazin-1-yl)-2-(4-chlorophenoxy)ethanone] | 3.5 µM | 0.99 µM | –
Nc1nc(N2CCN(C(=O)Nc3ccc(Cl)cc3)CC2)c2cc(-c3ccccc3)sc2n1 [Example 331, 4-(2-amino-6-phenylthieno[2,3-d]pyrimidin-4-yl)-N-(4-chlorophenyl)piperazine-1-carboxamide] | > 10 µM | > 10 µM | –
Nc1nc(N2CCN(C(=O)COc3ccc(Cl)cc3)CC2)c2nc(C3CC3)sc2n1 [Example 119, 5-amino-2-cyclopropyl-7-[4-(4-chlorophenoxyacetyl)piperazin-1-yl]-thiazolo[5,4-d]pyrimidine] | 3.03 µM | 3.81 µM | –
Nc1nc(N2CCN(C(=O)COc3cccc([N+](=O)[O-])c3)CC2)c2nc(-c3ccc(F)cc3)sc2n1 [Example 129, 5-amino-2-(4-fluorophenyl)-7-(4-[2-(3-nitrophenoxy)acetyl]-piperazin-1-yl)-thiazolo[5,4-d]pyrimidine] | 4.76 µM | 9.74 µM | –
COc1ccc(OCC(=O)N2CCN(c3nc(N)nc4sc(-c5ccc(Cl)cc5)nc34)CC2)cc1 [Example 270, 1-(4-(5-amino-2-(4-chlorophenyl)thiazolo[5,4-d]pyrimidin-7-yl)piperazin-1-yl)-2-(4-methoxyphenoxy)ethanone] | 0.18 µM | 0.45 µM | –
CCCc1nc2c(N3CCN(C(=O)COc4ccc(Cl)cc4)CC3)nc(N)nc2[nH]1 [Example 397, 1-(4-(2-amino-8-propyl-9H-purin-6-yl)piperazin-1-yl)-2-(4-chlorophenoxy)ethanone] | 4.51 µM | 1.26 µM | –
Nc1nc(N2CCN(C(=O)COc3ccc(Cl)cc3)CC2)c2nc(-c3ccc(Cl)c(Cl)c3)sc2n1 [Example 116, 5-amino-7-[4-(4-chlorophenoxyacetyl)piperazin-1-yl]-2-(3,4-dichlorophenyl)thiazolo[5,4-d]pyrimidine] | 6.01 µM | 8.59 µM | –
Nc1nc(N2CCN(C(=O)COc3ccc(OC(F)(F)F)cc3)CC2)c2nc(CCc3ccc(F)cc3)sc2n1 [Example 226, 1-(4-(5-amino-2-(4-fluorophenethyl)thiazolo[5,4-d]pyrimidin-7-yl)piperazin-1-yl)-2-(4-(trifluoromethoxy)phenoxy)ethanone] | > 10 µM | – | –
Cc1ccc(CCc2nc3c(N4CCN(C(=O)COc5ccc(Br)cc5)CC4)nc(N)nc3s2)cc1 [Example 258, 1-(4-(5-amino-2-(4-methylphenethyl)thiazolo[5,4-d]pyrimidin-7-yl)piperazin-1-yl)-2-(4-bromophenoxy)ethanone] | > 10 µM | – | –
Nc1nc(N2CCN(C(=O)COc3ccc(Cl)cc3)CC2)c2nc(-c3ccc(F)cc3)[nH]c2n1 [Example 389, 1-(4-(2-amino-8-(4-fluorophenyl)-9H-purin-6-yl)piperazin-1-yl)-2-(4-chlorophenoxy)ethanone] | – | > 10 µM | –
Nc1nc(N2CCN(C(=O)COc3cccc(Cl)c3)CC2)c2nc(CCc3ccc(F)cc3)sc2n1 [Example 228, 1-(4-(5-amino-2-(4-fluorophenethyl)thiazolo[5,4-d]pyrimidin-7-yl)piperazin-1-yl)-2-(3-chlorophenoxy)ethanone] | > 10 µM | – | –
COc1ccc(OCC(=O)N2CCN(c3nc(N)nc4sc(CCc5ccc(OC)c(OC)c5)nc34)CC2)cc1 [Example 257, 1-(4-(5-amino-2-(3,4-dimethoxyphenethyl)thiazolo[5,4-d]pyrimidin-7-yl)piperazin-1-yl)-2-(4-methoxyphenoxy)ethanone] | > 10 µM | – | –
COc1ccc(OCC(=O)N2CCN(c3nc(N)nc4sc(CCCCc5ccc(F)cc5)nc34)CC2)cc1 [Example 293, 1-(4-(5-amino-2-(4-(4-fluorophenyl)butyl)thiazolo[5,4-d]pyrimidin-7-yl)piperazin-1-yl)-2-(4-methoxyphenoxy)ethanone] | 0.83 µM | – | –
COc1ccc(OCC(=O)N2CCN(c3nc(N)nc4sc(CCc5ccc(C)cc5)nc34)CC2)cc1 [Example 259, 1-(4-(5-amino-2-(4-methylphenethyl)thiazolo[5,4-d]pyrimidin-7-yl)piperazin-1-yl)-2-(4-methoxyphenoxy)ethanone] | 3 µM | – | –
